Legend:
Experiment in all cases: Bliss excess, mean over the matrix (fraction); higher = more synergy
[1] = test system: ATN-1 (T-Lymphoblastic Leukemia)
Summary of the method: (§1)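 After 24 hours at 37°C and 5% CO2 in 1536-well plates, cells in DMEM/F12 or RPMI plus 10% FBS received two-drug dose matrices for 72 hours. Viability came from CellTiter-Glo 2.0 luminescence and was scaled as inhibition, anchored at 0 by vehicle wells and at 1 by blank wells. Combination Emax is taken as the second-highest inhibition in the matrix, and Bliss excess as the observed combination effect less EA + EB − EA·EB, with EA and EB the single-agent effects.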

[2] = test system: SBC-3 (Small Cell Lung Carcinoma)
Summary of the method: as §1

[3] = test system: SCC90 (Head and Neck Carcinoma)
Summary of the method: as §1

HT-144 (Melanoma) = test system: HT-144 (Melanoma)
Summary of the method: as §1

DK-MG (Glioblastoma) = test system: DK-MG (Glioblastoma)
Summary of the method: as §1

[4] = test system: HT-3 (Cervical Carcinoma)
Summary of the method: as §1

[5] = test system: BC-1 (B-Cell Non-Hodgkin's Lymphoma)
Summary of the method: as §1

[6] = test system: KNS-62 (Squamous Cell Lung Carcinoma)
Summary of the method: as §1

[7] = test system: NCI-H2023 (Non-Small Cell Lung Carcinoma)
Summary of the method: as §1

[8] = test system: NCI-H1435 (Non-Small Cell Lung Carcinoma)
Summary of the method: as §1

[9] = test system: CAL-85-1 (Breast Carcinoma)
Summary of the method: as §1

[10] = test system: BT-474 (Breast Carcinoma)
Summary of the method: as §1

[11] = test system: NTERA-2-cl-D1 (Other Solid Carcinomas)
Summary of the method: as §1

NCI-H2452 (Mesothelioma) = test system: NCI-H2452 (Mesothelioma)
Summary of the method: as §1

[12] = test system: RS4-11 (B-Lymphoblastic Leukemia)
Summary of the method: as §1

[13] = test system: SUP-HD1 (Hodgkin's Lymphoma)
Summary of the method: as §1

[14] = test system: JJN-3 (Plasma Cell Myeloma)
Summary of the method: as §1

MG-63 (Osteosarcoma) = test system: MG-63 (Osteosarcoma)
Summary of the method: as §1

GCIY (Gastric Carcinoma) = test system: GCIY (Gastric Carcinoma)
Summary of the method: as §1

[15] = test system: TOV-21G (Ovarian Carcinoma)
Summary of the method: as §1

Structure (SMILES) | Bliss excess [1] | Bliss excess [2] | Bliss excess [3] | Bliss excess (HT-144 (Melanoma)) | Bliss excess (DK-MG (Glioblastoma)) | Bliss excess [4] | Bliss excess [5] | Bliss excess [6] | Bliss excess [7] | Bliss excess [8] | Bliss excess [9] | Bliss excess [10] | Bliss excess [11] | Bliss excess (NCI-H2452 (Mesothelioma)) | Bliss excess [12] | Bliss excess [13] | Bliss excess [14] | Bliss excess (MG-63 (Osteosarcoma)) | Bliss excess (GCIY (Gastric Carcinoma)) | Bliss excess [15]
COc1cccc(OCCCN)c1-c1cc(Nc2cnc(C#N)cn2)n[nH]1 [Prexasertib] + CN(C)CCCOc1ccc(-c2ccc3ncc4c(c3c2)n(C2CCOCC2)c(=O)n4C)cn1 [AZD0156] (first compound max 1 µM, 7x7, partner max 1 µM) | 0.0102 | -0.0046 | -0.0634 | -0.0135 | -0.0104 | 0.0366 | -0.0057 | 0.0357 | -0.0373 | 0.0385 | -0.0157 | 0.0023 | 0.0083 | -0.0554 | -0.0548 | -0.0442 | 0.0057 | 0.0072 | -0.0072 | 0.0588
COc1cccc(OCCCN)c1-c1cc(Nc2cnc(C#N)cn2)n[nH]1 [Prexasertib] + C[C@@H]1COCCN1C2=NC(=NC(=C2)C3(CC3)[S@](=N)(=O)C)C4=C5C=CNC5=NC=C4 [AZD6738] (first compound max 1 µM, 7x7, partner max 10 µM) | -0.0207 | -0.0201 | -0.0457 | -0.0217 | 0.0073 | 0.0202 | -0.0022 | 0.0035 | 0.0108 | 0.0676 | 0.05 | -0.0233 | 0.0172 | -0.0061 | -0.0225 | -0.0809 | -0.0519 | 0.0234 | 0.0063 | -0.0582
COc1cccc(OCCCN)c1-c1cc(Nc2cnc(C#N)cn2)n[nH]1 [Prexasertib] + Cc1cc2ncnn2cc1Nc1ncc2c(n1)n(C1CCOCC1)c(=O)n2C [AZD7648] (first compound max 1 µM, 7x7, partner max 10 µM) | 0.0136 | -0.0512 | -0.036 | -0.0061 | 0.0253 | -0.0098 | -0.0239 | -0.0225 | -0.027 | 0.0115 | 0.0382 | -0.0188 | -0.0688 | -0.0623 | -0.0159 | -0.0443 | -0.0097 | -0.0128 | -0.0648 | 0.0057
COc1cccc(OCCCN)c1-c1cc(Nc2cnc(C#N)cn2)n[nH]1 [Prexasertib] + O=C(c1cc(Cc2n[nH]c(=O)c3ccccc23)ccc1F)N1CCN(C(=O)C2CC2)CC1 [Olaparib] (first compound max 1 µM, 7x7, partner max 10 µM) | -0.0078 | -0.0544 | -0.095 | -0.0264 | 0.0193 | 0.0276 | -0.0108 | -0.0637 | -0.0213 | 0.0045 | -0.0209 | -0.037 | 0.0401 | -0.0874 | -0.0025 | -0.091 | 0.0165 | -0.0745 | -0.0476 | -0.0111
CCc1c2c(nc3ccc(O)cc13)-c1cc3c(c(=O)n1C2)COC(=O)[C@]3(O)CC [SN-38] + CN(C)CCCOc1ccc(-c2ccc3ncc4c(c3c2)n(C2CCOCC2)c(=O)n4C)cn1 [AZD0156] (first compound max 0.3 µM, 7x7, partner max 1 µM) | 0.0407 | -0.0894 | 0.0059 | -0.0219 | -0.0007 | 0.0499 | 0.0158 | -0.0557 | -0.0017 | -0.026 | -0.0349 | -0.047 | -0.0591 | -0.0197 | -0.0347 | -0.0579 | 0.0183 | -0.0166 | 0.0057 | -0.0349
Cn1cnc2c(F)c(Nc3ccc(Br)cc3Cl)c(C(=O)NOCCO)cc21 [Selumetinib] + C=CCn1c(=O)c2cnc(Nc3ccc(N4CCN(C)CC4)cc3)nc2n1-c1cccc(C(C)(C)O)n1 [AZD1775] (first compound max 10 µM, partner max 1 µM) | -0.0253 | -0.0655 | -0.0036 | -0.0127 | -0.0548 | -0.0009 | 0.0569 | -0.0251 | -0.0578 | 0.0007 | -0.063 | -0.0466 | 0.0314 | -0.0288 | -0.0443 | -0.0188 | -0.0188 | -0.0327 | 0.0057 | -0.0891
Cn1cnc2c(F)c(Nc3ccc(Br)cc3Cl)c(C(=O)NOCCO)cc21 [Selumetinib] + CC(C)n1c(=O)n(C)c2cnc3cc(F)c(-c4ccc(OCCCN5CCCCC5)nc4)cc3c21 [AZD1390] (first compound max 10 µM, 7x7, partner max 0.3 µM) | -0.0318 | -0.0592 | 0.0124 | -0.0653 | 0.0063 | -0.0392 | -0.0023 | -0.0513 | -0.0292 | -0.0087 | -0.0039 | -0.0469 | 0.0052 | -0.0732 | -0.0245 | -0.043 | 0.0046 | -0.0037 | -0.0233 | -0.0336
Cn1cnc2c(F)c(Nc3ccc(Br)cc3Cl)c(C(=O)NOCCO)cc21 [Selumetinib] + CCN(CCO)CCCOc1ccc2c(Nc3cc(CC(=O)Nc4cccc(F)c4)[nH]n3)ncnc2c1 [AZD2811] (first compound max 10 µM, 7x7, partner max 1 µM) | -0.0981 | -0.0518 | 0.0116 | 0.0172 | -0.0736 | -0.0288 | 0.0349 | -0.0104 | -0.0294 | -0.0112 | 0.0353 | -0.0419 | 0.0056 | -0.0726 | -0.0367 | 0.0251 | 0.0552 | -0.0494 | -0.0127 | 0.0139
Cn1cnc2c(F)c(Nc3ccc(Br)cc3Cl)c(C(=O)NOCCO)cc21 [Selumetinib] + C[C@@H]1COCCN1C2=NC(=NC(=C2)C3(CC3)[S@](=N)(=O)C)C4=C5C=CNC5=NC=C4 [AZD6738] (first compound max 10 µM, 7x7, partner max 10 µM) | -0.024 | -0.081 | 0.0126 | -0.0011 | 0.059 | 0.063 | -0.0612 | -0.0278 | -0.0255 | -0.0103 | 0.0508 | -0.0485 | -0.009 | -0.0476 | -0.0098 | -0.0549 | 0.0533 | 0.0342 | -0.0003 | 0.0142
CC(=O)Nc1cccc(-n2c(=O)n(C3CC3)c(=O)c3c(Nc4ccc(I)cc4F)n(C)c(=O)c(C)c32)c1 [Trametinib] + Cc1nc(-c2cn3c(n2)-c2ccc(-c4cnn(C(C)(C)C(N)=O)c4)cc2OCC3)n(C(C)C)n1 [Taselisib] (first compound max 1 µM, 7x7, partner max 10 µM) | -0.0503 | 0.0858 | 0.0348 | 0.0234 | 0.102 | 0.12 | 0.149 | 0.056 | 0.0549 | 0.107 | 0.213 | 0.0002 | 0.022 | 0.101 | 0.0927 | 0.0392 | 0.204 | 0.0237 | 0.0252 | -0.051
CC1(C)CCC(CN2CCN(c3ccc(C(=O)NS(=O)(=O)c4ccc(NCC5CCOCC5)c([N+](=O)[O-])c4)c(Oc4cnc5[nH]ccc5c4)c3)CC2)=C(c2ccc(Cl)cc2)C1 [Venetoclax] + C1CN(CCC1(C(=O)N[C@@H](CCO)C2=CC=C(C=C2)Cl)N)C3=NC=NC4=C3C=CN4 [Capivasertib] (first compound max 1 µM, 7x7, partner max 3 µM) | 0.0132 | -0.0457 | 0.0282 | -0.0575 | -0.0193 | -0.0231 | -0.011 | -0.0474 | -0.0449 | 0.0014 | -0.031 | -0.0376 | -0.0574 | -0.0318 | -0.003 | -0.0636 | -0.0035 | -0.0862 | -0.0778 | -0.0533
CC1(C)CCC(CN2CCN(c3ccc(C(=O)NS(=O)(=O)c4ccc(NCC5CCOCC5)c([N+](=O)[O-])c4)c(Oc4cnc5[nH]ccc5c4)c3)CC2)=C(c2ccc(Cl)cc2)C1 [Venetoclax] + C=CCn1c(=O)c2cnc(Nc3ccc(N4CCN(C)CC4)cc3)nc2n1-c1cccc(C(C)(C)O)n1 [AZD1775] (first compound max 1 µM, partner max 1 µM) | 0.0707 | 0.043 | -0.0466 | -0.0314 | -0.0003 | -0.0049 | 0.0683 | -0.0106 | 0.0053 | -0.0029 | -0.0334 | -0.0668 | -0.0202 | 0.0036 | 0.0174 | -0.0256 | -0.0187 | -0.0048 | 0.111 | -0.0261
CC1(C)CCC(CN2CCN(c3ccc(C(=O)NS(=O)(=O)c4ccc(NCC5CCOCC5)c([N+](=O)[O-])c4)c(Oc4cnc5[nH]ccc5c4)c3)CC2)=C(c2ccc(Cl)cc2)C1 [Venetoclax] + CCN(CCO)CCCOc1ccc2c(Nc3cc(CC(=O)Nc4cccc(F)c4)[nH]n3)ncnc2c1 [AZD2811] (first compound max 1 µM, 7x7, partner max 1 µM) | 0.0113 | 0.0166 | 0.169 | -0.0132 | -0.0784 | -0.0129 | 0.111 | 0.0131 | -0.067 | 0.0104 | -0.032 | -0.0035 | 0.0826 | 0.0268 | 0.003 | -0.0195 | 0.169 | -0.0699 | -0.0468 | 0.0149
CC1(C)CCC(CN2CCN(c3ccc(C(=O)NS(=O)(=O)c4ccc(NCC5CCOCC5)c([N+](=O)[O-])c4)c(Oc4cnc5[nH]ccc5c4)c3)CC2)=C(c2ccc(Cl)cc2)C1 [Venetoclax] + CN(C)CCCOc1ccc(-c2ccc3ncc4c(c3c2)n(C2CCOCC2)c(=O)n4C)cn1 [AZD0156] (first compound max 1 µM, 7x7, partner max 1 µM) | 0.0437 | -0.0369 | 0.0217 | 0.0366 | -0.0222 | -0.0423 | 0.0066 | -0.0183 | -0.058 | -0.0029 | -0.0476 | -0.0072 | -0.0372 | -0.0149 | -0.0088 | -0.0962 | 0.0008 | 0.0063 | 0.0131 | -0.0322
